Key:
ZR-75 cells = test: Cell proliferation assay in ZR-75 breast cancer cells; assay type: cell-based, human; conditions: for IC50: Homo sapiens, ZR75, 240 h, ZR-75, 10 days, MTT, read-out: IC50 (half-maximal reduction in 570 nm absorbance)
Description: ZR-75 cells are human mammary carcinoma cells that are positive for estrogen receptors. The potential activity of vitamin D3 analogs against breast cancer was assessed from inhibition of proliferation of ZR-75 cells in culture.
ZR-75 cells were plated at 12,500 cells/well in 24-well plates and incubated at 37° C. in 5% CO2 /95% air in RPMI medium containing 10% fetal bovine serum and 2 mM glutamine. Stock solutions of vitamin D3 analogs were prepared at a concentration of 10 mM in absolute ethanol and stored at -20° C. under argon. One day after plating, ZR-75 cells were refed with either control medium or medium containing varying concentrations of the vitamin D3 analog.
The IC50 value was defined as the concentration of the vitamin D3 analog corresponding to half-maximal reduction in 570 nm absorbance.

murine leukemia = murine leukemia model systems; cited from earlier work
MCF-7 cells = test: Cell proliferation assay in MCF-7 breast cancer cells; assay type: cell-based, human; conditions: for IC50: Homo sapiens, MCF7, 168 h, MCF-7, 7 days, MTT, read-out: IC50 (half-maximal reduction in 570 nm absorbance)
Description: MCF-7 cells are human mammary carcinoma cells that are positive for estrogen receptors. The potential activity of vitamin D3 analogs against breast cancer was assessed from inhibition of proliferation of MCF-7 cells in culture.
MCF-7 cells were plated at 5000 cells/well in 96-well plates and incubated at 37° C. in 5% CO2 /95% air in Dulbecco's Modified Eagle Medium containing 10% fetal bovine serum 700 nM insulin, 2 mM glutamine, 0.1 mM MEM non-essential amino acids and 1 mM sodium pyruvate. Stock solutions of vitamin D3 analogs were prepared at a concentration of 10 mM in absolute ethanol and stored at -20° C. under argon. One day after plating, MCF-7 cells were refed with either control medium or medium containing varying concentrations of the vitamin D3 analog.
For each vitamin D3 analog, the IC50 value was determined from a graph relating the optical density at 570 nm to the concentration used. The IC50 value was defined as the concentration of the vitamin D3 analog corresponding to half-maximal reduction in 570 nm absorbance.

[1] = system: steroid-induced bone loss; conditions: 0.5 to 1.0 micrograms/day plus calcium 1000 mg/day, with or without intranasal calcitonin 400 IU/day; cited from earlier work
[2] = system: parathyroid hormone (serum PTH); test: Serum PTH suppression in rat renal insufficiency model (7/8 nephrectomy, secondary hyperparathyroidism); assay type: in vivo, Female Sprague Dawley rats; conditions: for PTH T = 1 - T = 0: po, seven days
Description: (§1) Female Sprague Dawley rats were anesthesized, their right kidney removed and 2-3 branches of the left renal artery were ligated to achieve 7/8 nephrectomy. They were placed on a high phosphorous diet (0.6% Ca and 0.8 phosphorous). Approximately 3-6 weeks after surgery, rats were bled to screen serum PTH levels and rats with PTH levels between 100-500 pg/ml were selected for the study.
(§2) 1 6 Formula Ia, 10 μg/kg/day, po
(§3) 2 6 Formula Ia, 1 μg/kg/day, po
(§4) 3 6 Formula Ia, 0.1 μg/kg/day, po
(§5) There was a pre-bleed (T=0) and each group was dosed daily for seven days by oral gavage with either the compound of Formula Ia (10, 1 or 0.1 μg/kg/day), vehicle control or 1,24(OH)2 vitamin D3 positive control. Compounds were predissolved in ethanol and diluted with vehicle (Miglyol 812) followed by evaporation of the ethanol.
(§6) After the last day of dosing, the animals were bled again (T=1) and sacrificed. Serum PTH assays were done with Nichols Institute Diagnostic Kit #40-2240. Serum calcium assays were done with Sigma Diagnostic Kit #587 with o-cresophthaleiri. Serum creatinine assays were done with Sigma Diagnostic Kit #1600-320 with […].

PTH synthesis = conditions: cited from earlier work
[3] = system: postmenopausal osteoporosis; conditions: cited from earlier work
bone = conditions: animal studies; cited from earlier work
[4] = cited from earlier work
[5] = Serum calcium in rat renal insufficiency model (7/8 nephrectomy); assay type: in vivo, Female Sprague Dawley rats; parameters: Final Ca Levels: unit not given here; conditions: for Final Ca Levels: po, seven days, serum
Description: as §1, §2, §3, §4, §5, §6

What does the source list for `C=C1/C(=C\C=C2/CCC[C@]3(C)[C@@H]([C@H](C)CCCC(C)(C)O)CC[C@@H]23)C[C@@H](O)C[C@@H]1O` [1,25(OH)2 vit. D3, 1,25-Dihydroxy-cholecalciferol]?
IC50 (ZR-75 cells): 13 nM; anti-proliferative and differentiating effect (murine leukemia): not only an anti-proliferative effect, but also a differentiating effect; IC50 (MCF-7 cells): 40 nM; steroid-induced bone loss [1]: prevented steroid-induced bone loss; PTH T = 1 - T = 0 ([2]; 0.1 μg/kg (table 2; table 1: 0.2 μg/kg/day)): -66 pg/mL; suppressive action on PTH synthesis (PTH synthesis): direct suppressive action on PTH synthesis; lower rate of new vertebral fractures versus elemental calcium 1000 mg/day ([3]; 0.25 microgram twice daily, 3 years, mild to moderate disease): 3 fold; hypercalcaemia ([3]; at recommended dosages): infrequent and mild; therapeutic window: proximity of therapeutic and toxic doses ([3]; human, in vivo): close proximity of therapeutic and toxic doses; tolerability ([3]; overall): well tolerated; bone anabolic activity (bone): suggested bone anabolic activity; hypercalcemia in vivo ([4]; high dose treatment): hypercalcemia observed with high dose treatment; therapeutic ratio ([4]; human usage): poor therapeutic ratio (hypercalciuria and hypercalcemia as well as nephrotoxicity); hypercalcemic effects ([4]; narrow therapeutic window, especially at high doses): potent hypercalcemic effects

For `C=C1/C(=C\C=C2/CCC[C@]3(C)[C@@H](C(CCCC(C)(C)O)CCCC(C)(C)O)CC[C@@H]23)C[C@@H](O)C[C@@H]1O` [Formula Ia, (1α,3β,5Z,7E)-21-(3-hydroxy-3-methylbutyl)-9,10-Secocholesta-5,7,10, (19)-triene-1,3,25-triol], which IC50 (ZR-75 cells) is on record?
The IC50 was 0.3 nM.

What about the “potency relative to 1,25-dihydroxy-cholecalciferol in inhibition of ZR-75 growth” value (ZR-75 cells; ZR-75) of the same compound?
Its value is “more than 40 times”.

And the IC50 (MCF-7 cells)?
The IC50 was 0.8 nM.

And the “potency relative to 1,25-dihydroxy-cholecalciferol in inhibition of MCF-7 growth” value (MCF-7 cells; MCF-7)?
Its value is “approximately 50 times”.

And the “PTH T = 1 - T = 0” value ([2]; 0.1 μg/kg/day)?
Its value is 112 pg/mL.

And the “PTH T = 1 - T = 0” value ([2]; 1 μg/kg/day)?
The value was -124 pg/mL.

And the “PTH T = 1 - T = 0” value ([2]; 10 μg/kg/day)?
Its value is -132 pg/mL.

And the “suppressing the elevated levels of parathyroid hormone, versus 1,25(OH)2 vit. D3” value ([2]; in words)?
Its value is “more effective than 1,25(OH)2 vit. D3”.

What about the “Final Ca Levels” value ([5]; 0.1 μg/kg/day) of the same compound?
The value was 10.20.

What about the “Final Ca Levels” value ([5]; 1 μg/kg/day) of the same compound?
The value was 10.35.

What about the “Final Ca Levels” value ([5]; 10 μg/kg/day) of the same compound?
Its value is 11.97.

What about the elevated calcium levels ([5]; in words) of the same compound?
Its elevated calcium levels is “without causing elevated calcium levels”.

From patent publication US6008209A, “Method of using vitamin D3 analogs with bis C-20 side chains” (Hoffmann-La Roche Inc., priority 1998, dated 1999)
